Measured values from the NIST ThermoML archive (doi:10.1021/je0504212).
Numbers after ± are expanded uncertainties.

Assays:
[1] = 308.5 K; 101.33 kPa; Liquid
[2] = excess molar enthalpy (molar enthalpy of mixing); xn = mol fraction of the nth substance listed; settings: 308.15 K, 101 kPa, Liquid, Flow calorimetry

CCOCCOCC [1,2-diethoxyethane]
mass density [1]: 826.22 ± 0.58 kg/m3

CCOCCOCC [1,2-diethoxyethane] + OCc1ccccc1
excess molar enthalpy ([2]; x1 = 0.0296): -0.0494 ± 0.0012 kJ/mol
excess molar enthalpy ([2]; x1 = 0.0575): -0.122 ± 0.0017 kJ/mol
excess molar enthalpy ([2]; x1 = 0.0838): -0.202 ± 0.0023 kJ/mol
excess molar enthalpy ([2]; x1 = 0.1087): -0.276 ± 0.0029 kJ/mol
excess molar enthalpy ([2]; x1 = 0.1546): -0.3981 ± 0.0039 kJ/mol
excess molar enthalpy ([2]; x1 = 0.196): -0.4781 ± 0.0045 kJ/mol
excess molar enthalpy ([2]; x1 = 0.2678): -0.5489 ± 0.005 kJ/mol
excess molar enthalpy ([2]; x1 = 0.3278): -0.5536 ± 0.0051 kJ/mol
excess molar enthalpy ([2]; x1 = 0.4225): -0.5121 ± 0.0047 kJ/mol
excess molar enthalpy ([2]; x1 = 0.5232): -0.449 ± 0.0043 kJ/mol
excess molar enthalpy ([2]; x1 = 0.594): -0.3957 ± 0.0038 kJ/mol
excess molar enthalpy ([2]; x1 = 0.687): -0.286 ± 0.003 kJ/mol
excess molar enthalpy ([2]; x1 = 0.7453): -0.183 ± 0.0022 kJ/mol
excess molar enthalpy ([2]; x1 = 0.8144): -0.0385 ± 0.0011 kJ/mol
excess molar enthalpy ([2]; x1 = 0.8541): 0.0428 ± 0.0011 kJ/mol
excess molar enthalpy ([2]; x1 = 0.8977): 0.11 ± 0.0016 kJ/mol
excess molar enthalpy ([2]; x1 = 0.9461): 0.124 ± 0.0017 kJ/mol

COCCOC [1,2-dimethoxyethane]
mass density [1]: 850.28 ± 0.56 kg/m3

COCCOC [1,2-dimethoxyethane] + OCc1ccccc1
excess molar enthalpy ([2]; x1 = 0.0395): 0.0723 ± 0.0013 kJ/mol
excess molar enthalpy ([2]; x1 = 0.076): 0.0567 ± 0.0012 kJ/mol
excess molar enthalpy ([2]; x1 = 0.1098): 0.0029 ± 0.0008 kJ/mol
excess molar enthalpy ([2]; x1 = 0.1413): -0.0625 ± 0.0013 kJ/mol
excess molar enthalpy ([2]; x1 = 0.1979): -0.182 ± 0.0022 kJ/mol
excess molar enthalpy ([2]; x1 = 0.2476): -0.265 ± 0.0028 kJ/mol
excess molar enthalpy ([2]; x1 = 0.3305): -0.335 ± 0.0034 kJ/mol
excess molar enthalpy ([2]; x1 = 0.3969): -0.335 ± 0.0034 kJ/mol
excess molar enthalpy ([2]; x1 = 0.4968): -0.261 ± 0.0028 kJ/mol
excess molar enthalpy ([2]; x1 = 0.5969): -0.122 ± 0.0017 kJ/mol
excess molar enthalpy ([2]; x1 = 0.6638): 0.0128 ± 0.0009 kJ/mol
excess molar enthalpy ([2]; x1 = 0.7476): 0.227 ± 0.0025 kJ/mol
excess molar enthalpy ([2]; x1 = 0.7979): 0.3643 ± 0.0036 kJ/mol
excess molar enthalpy ([2]; x1 = 0.8555): 0.4893 ± 0.0046 kJ/mol
excess molar enthalpy ([2]; x1 = 0.8876): 0.517 ± 0.0048 kJ/mol
excess molar enthalpy ([2]; x1 = 0.9221): 0.4859 ± 0.0045 kJ/mol
excess molar enthalpy ([2]; x1 = 0.9595): 0.3449 ± 0.0034 kJ/mol

CCOCCOCCOCCO [2-(2-(2-ethoxyethoxy)ethoxy)ethanol]
mass density [1]: 1008.8 ± 1 kg/m3

CCOCCOCCOCCO [2-(2-(2-ethoxyethoxy)ethoxy)ethanol] + OCc1ccccc1
excess molar enthalpy ([2]; x1 = 0.0241): -0.197 ± 0.0023 kJ/mol
excess molar enthalpy ([2]; x1 = 0.047): -0.3533 ± 0.0035 kJ/mol
excess molar enthalpy ([2]; x1 = 0.0689): -0.4763 ± 0.0045 kJ/mol
excess molar enthalpy ([2]; x1 = 0.0898): -0.5746 ± 0.0052 kJ/mol
excess molar enthalpy ([2]; x1 = 0.129): -0.7169 ± 0.0063 kJ/mol
excess molar enthalpy ([2]; x1 = 0.1648): -0.8135 ± 0.0071 kJ/mol
excess molar enthalpy ([2]; x1 = 0.2284): -0.9273 ± 0.008 kJ/mol
excess molar enthalpy ([2]; x1 = 0.283): -0.9874 ± 0.0084 kJ/mol
excess molar enthalpy ([2]; x1 = 0.3719): -1.036 ± 0.0088 kJ/mol
excess molar enthalpy ([2]; x1 = 0.4704): -1.03 ± 0.0088 kJ/mol
excess molar enthalpy ([2]; x1 = 0.5422): -0.9851 ± 0.0084 kJ/mol
excess molar enthalpy ([2]; x1 = 0.6398): -0.8691 ± 0.0075 kJ/mol
excess molar enthalpy ([2]; x1 = 0.7031): -0.7647 ± 0.0067 kJ/mol
excess molar enthalpy ([2]; x1 = 0.7804): -0.6104 ± 0.0055 kJ/mol
excess molar enthalpy ([2]; x1 = 0.8257): -0.51 ± 0.0048 kJ/mol
excess molar enthalpy ([2]; x1 = 0.8766): -0.3858 ± 0.0038 kJ/mol
excess molar enthalpy ([2]; x1 = 0.9343): -0.227 ± 0.0026 kJ/mol

CCOCCO [2-ethoxyethan-1-ol]
mass density [1]: 916 ± 0.53 kg/m3

CCOCCO [2-ethoxyethan-1-ol] + OCc1ccccc1
excess molar enthalpy ([2]; x1 = 0.0424): -0.0908 ± 0.0015 kJ/mol
excess molar enthalpy ([2]; x1 = 0.0814): -0.162 ± 0.002 kJ/mol
excess molar enthalpy ([2]; x1 = 0.1173): -0.218 ± 0.0025 kJ/mol
excess molar enthalpy ([2]; x1 = 0.1505): -0.266 ± 0.0028 kJ/mol
excess molar enthalpy ([2]; x1 = 0.21): -0.336 ± 0.0034 kJ/mol
excess molar enthalpy ([2]; x1 = 0.2617): -0.3853 ± 0.0038 kJ/mol
excess molar enthalpy ([2]; x1 = 0.3471): -0.4414 ± 0.0042 kJ/mol
excess molar enthalpy ([2]; x1 = 0.4148): -0.4607 ± 0.0043 kJ/mol
excess molar enthalpy ([2]; x1 = 0.5154): -0.4578 ± 0.0043 kJ/mol
excess molar enthalpy ([2]; x1 = 0.6147): -0.419 ± 0.004 kJ/mol
excess molar enthalpy ([2]; x1 = 0.6802): -0.3754 ± 0.0037 kJ/mol
excess molar enthalpy ([2]; x1 = 0.7613): -0.302 ± 0.0031 kJ/mol
excess molar enthalpy ([2]; x1 = 0.8097): -0.248 ± 0.0027 kJ/mol
excess molar enthalpy ([2]; x1 = 0.8645): -0.177 ± 0.0021 kJ/mol
excess molar enthalpy ([2]; x1 = 0.8948): -0.134 ± 0.0018 kJ/mol
excess molar enthalpy ([2]; x1 = 0.9273): -0.0884 ± 0.0015 kJ/mol
excess molar enthalpy ([2]; x1 = 0.9623): -0.0416 ± 0.0011 kJ/mol

CCOCCOCCO [3,6-dioxa-1-octanol]
mass density [1]: 974.67 ± 0.52 kg/m3

CCOCCOCCO [3,6-dioxa-1-octanol] + OCc1ccccc1
excess molar enthalpy ([2]; x1 = 0.0289): -0.197 ± 0.0023 kJ/mol
excess molar enthalpy ([2]; x1 = 0.0561): -0.346 ± 0.0035 kJ/mol
excess molar enthalpy ([2]; x1 = 0.0819): -0.461 ± 0.0043 kJ/mol
excess molar enthalpy ([2]; x1 = 0.1063): -0.5515 ± 0.005 kJ/mol
excess molar enthalpy ([2]; x1 = 0.1514): -0.6808 ± 0.006 kJ/mol
excess molar enthalpy ([2]; x1 = 0.1921): -0.7696 ± 0.0067 kJ/mol
excess molar enthalpy ([2]; x1 = 0.2629): -0.8717 ± 0.0075 kJ/mol
excess molar enthalpy ([2]; x1 = 0.3223): -0.9193 ± 0.0079 kJ/mol
excess molar enthalpy ([2]; x1 = 0.4164): -0.9413 ± 0.0081 kJ/mol
excess molar enthalpy ([2]; x1 = 0.517): -0.8963 ± 0.0077 kJ/mol
excess molar enthalpy ([2]; x1 = 0.588): -0.8322 ± 0.0072 kJ/mol
excess molar enthalpy ([2]; x1 = 0.6816): -0.7117 ± 0.0063 kJ/mol
excess molar enthalpy ([2]; x1 = 0.7405): -0.6172 ± 0.0056 kJ/mol
excess molar enthalpy ([2]; x1 = 0.8106): -0.487 ± 0.0045 kJ/mol
excess molar enthalpy ([2]; x1 = 0.8509): -0.4008 ± 0.0039 kJ/mol
excess molar enthalpy ([2]; x1 = 0.8954): -0.296 ± 0.0031 kJ/mol
excess molar enthalpy ([2]; x1 = 0.9448): -0.165 ± 0.0021 kJ/mol

OCc1ccccc1 [benzenemethanol]
mass density [1]: 1033.64 ± 0.55 kg/m3

OCc1ccccc1 [benzenemethanol] + CCCCOCCCC
excess molar enthalpy ([2]; x2 = 0.0247): -0.0067 ± 0.0008 kJ/mol
excess molar enthalpy ([2]; x2 = 0.0481): 0.001 ± 0.0008 kJ/mol
excess molar enthalpy ([2]; x2 = 0.0705): 0.0178 ± 0.0009 kJ/mol
excess molar enthalpy ([2]; x2 = 0.0918): 0.0403 ± 0.0011 kJ/mol
excess molar enthalpy ([2]; x2 = 0.1317): 0.0927 ± 0.0015 kJ/mol
excess molar enthalpy ([2]; x2 = 0.1682): 0.149 ± 0.0019 kJ/mol
excess molar enthalpy ([2]; x2 = 0.2327): 0.253 ± 0.0027 kJ/mol
excess molar enthalpy ([2]; x2 = 0.288): 0.3435 ± 0.0034 kJ/mol
excess molar enthalpy ([2]; x2 = 0.3776): 0.4754 ± 0.0045 kJ/mol
excess molar enthalpy ([2]; x2 = 0.4765): 0.5882 ± 0.0053 kJ/mol
excess molar enthalpy ([2]; x2 = 0.5482): 0.6422 ± 0.0058 kJ/mol
excess molar enthalpy ([2]; x2 = 0.6454): 0.6809 ± 0.006 kJ/mol
excess molar enthalpy ([2]; x2 = 0.7082): 0.6883 ± 0.0061 kJ/mol
excess molar enthalpy ([2]; x2 = 0.7845): 0.6726 ± 0.006 kJ/mol
excess molar enthalpy ([2]; x2 = 0.8292): 0.6413 ± 0.0057 kJ/mol
excess molar enthalpy ([2]; x2 = 0.8792): 0.5697 ± 0.0052 kJ/mol
excess molar enthalpy ([2]; x2 = 0.9357): 0.4007 ± 0.0039 kJ/mol

CCOCCOCCOCC [diethylene glycol diethyl ether]
mass density [1]: 893.08 ± 0.54 kg/m3

CCOCCOCCOCC [diethylene glycol diethyl ether] + OCc1ccccc1
excess molar enthalpy ([2]; x1 = 0.0234): -0.168 ± 0.0021 kJ/mol
excess molar enthalpy ([2]; x1 = 0.0458): -0.304 ± 0.0031 kJ/mol
excess molar enthalpy ([2]; x1 = 0.0672): -0.4167 ± 0.004 kJ/mol
excess molar enthalpy ([2]; x1 = 0.0876): -0.5083 ± 0.0047 kJ/mol
excess molar enthalpy ([2]; x1 = 0.1259): -0.6473 ± 0.0058 kJ/mol
excess molar enthalpy ([2]; x1 = 0.1611): -0.7418 ± 0.0065 kJ/mol
excess molar enthalpy ([2]; x1 = 0.2236): -0.8493 ± 0.0074 kJ/mol
excess molar enthalpy ([2]; x1 = 0.2774): -0.8916 ± 0.0077 kJ/mol
excess molar enthalpy ([2]; x1 = 0.3655): -0.8906 ± 0.0077 kJ/mol
excess molar enthalpy ([2]; x1 = 0.4635): -0.8255 ± 0.0072 kJ/mol
excess molar enthalpy ([2]; x1 = 0.5353): -0.7498 ± 0.0066 kJ/mol
excess molar enthalpy ([2]; x1 = 0.6334): -0.6247 ± 0.0056 kJ/mol
excess molar enthalpy ([2]; x1 = 0.6973): -0.5306 ± 0.0049 kJ/mol
excess molar enthalpy ([2]; x1 = 0.7756): -0.4016 ± 0.0039 kJ/mol
excess molar enthalpy ([2]; x1 = 0.8217): -0.32 ± 0.0033 kJ/mol
excess molar enthalpy ([2]; x1 = 0.8736): -0.225 ± 0.0025 kJ/mol
excess molar enthalpy ([2]; x1 = 0.9325): -0.115 ± 0.0017 kJ/mol

OCCOCCO [diethylene glycol]
mass density [1]: 1105.86 ± 0.63 kg/m3

OCCOCCOCCO [triethylene glycol]
mass density [1]: 1112.59 ± 0.64 kg/m3
